Data: patent US20210322509A1, “Methods for Reducing Perinatal Morbidity and / or Mortality” (CHU SAINTE-JUSTINE, priority 2016, published 2021)
Non-standard residues stand in square brackets, D forms with d. Residues, ends and D or L forms follow the SMILES beside them. ξ: configuration not given here. dThr(3ξ) = CC(O)[C@@H](N)C(=O)O

How the values were obtained:
[1] = system: IL-1β, IL-6, IL-8 and PGF2α in neonatal lungs; experiment: ELISA of pro-inflammatory mediators in lungs of neonates; type: in vivo, mice; conditions: neonates from IL-1β-treated dams; tissue collected at birth
Description: FIGS. 3A to 3D show the levels of the pro-inflammatory mediators IL-1p (FIG. 3A), IL-6 (FIG. 3B), IL-8 (FIG. 3C) and PGF2a (FIG. 3D) in the lungs of neonates from sham and IL-1β-treated dams administered with vehicle, Compound 1 or Kineret, as assessed by ELISA. One-way ANOVA compared to IL-1β+Veh. *p<0.05, **p<0.01. n=4 pups in each groups.
(§1) Murine ELISA assays. The ELISA assay was performed using mouse Quantikine™ ELISA kits against IL-1β or IL-6 (R&D Systems®; #MLBOOC, M6000B), IL-8 and PGF2α (MyBioSource®; #MBS261967, #MBS264160) according to the manufacturer's instructions. Briefly, tissues (lungs, intestines and brains) collected at birth were homogenized in RIPA buffer containing proteases and 50 μL of either lung, intestine, or brain samples, recombinant mouse IL-1β, IL-6, IL-8 or PGF2α positive control or decreasing concentrations of a recombinant mouse IL-1β, IL-6, IL-8 or PGF2α standard were loaded into a 96-well plate pre-coated with a monoclonal anti-mouse IL-1β antibody and incubated for 2 hours at ambient temperature. Wells were washed 5 times and incubated with an enzyme-linked mouse polyclonal antibody specific to murine IL-1β for 2 hours. After another washing step, a substrate solution was added. The enzymatic reaction was stopped after 30 minutes and the plate was read at 450 nm, with wavelength correction set to 570 nm.

[2] = system: IL-1β, IL-6, IL-8 and PGF2α in neonatal intestines; experiment: ELISA of pro-inflammatory mediators in intestines of neonates; type: in vivo, mice; conditions: neonates from IL-1β-treated dams; for levels of gut IL-6: relative to control
Description: FIGS. 5A to 5D show the levels of the pro-inflammatory mediators IL-1p (FIG. 5A), IL-6 (FIG. 5B), IL-8 (FIG. 5C) and PGF2a (FIG. 5D) in the intestines of neonates from sham and IL-1β-treated dams administered with vehicle, Compound 1 or Kineret, as assessed by ELISA. One-way ANOVA compared to IL-1β+Veh. *p<0.05. n=4 pups in each groups.
as §1

[3] = system: IL-1β, IL-6, IL-8 and PGF2α in fetal brain tissue; experiment: ELISA of pro-inflammatory mediators in brain of neonates; type: in vivo, mice; conditions: neonates from IL-1β-treated dams
Description: FIGS. 8A to 8D show the levels of the pro-inflammatory mediators IL-1β (FIG. 8A), IL-6 (FIG. 8B), IL-8 (FIG. 8C) and PGF2a (FIG. 8D) in fetal brain tissue of neonates from sham and IL-1β-treated dams administered with vehicle, Compound 1 or Kineret, as assessed by ELISA. One-way ANOVA compared to IL-1β+Veh. *p<0.05, **p<0.01, ***p<0.001. n=4 pups in each groups.
as §1

[4] = system: Il1a, Il1b, Il6 and Tnfa mRNA in fetal head; experiment: LPS-induced cytokine gene expression in fetal brain (qPCR); type: in vivo, C57Bl/6 mice
Description: FIGS. 10A to 10D show the induction of pro-inflammatory cytokines in fetal brain after maternal LPS administration is suppressed by compound 2 (cmpd2) in mice. C57Bl/6 mice were mated to males of the same genotype, administered LPS with or without compound 2 and fetal head were recovered. Relative expression of Il1a (FIG. 10A), IL6 (FIG. 10B), TNF (FIG. 10C) and IL1B (FIG. 10D) mRNAs were determined in each tissue by qPCR and normalized to Actb. Data are shown as mean±SEM relative gene expression in tissue pooled from two implantation sites with n=6 dams/group. The effect of LPS and compound 2 was analyzed by Kruskal-Wallis and Mann-Whitney U-test. #* indicates significant differences between groups, p<0.05.
Animal and treatments. To analyze effects of compound 2 on LPS-induced cytokine expression in the fetal brain after inflammatory stimulus mimicking infection in utero, pregnant female C57Bl/6 female mice (mated with C57Bl/6 males) were injected with 0.5 μg lipopolysaccharide (LPS; Salmonella typhimurium; Sigma-Aldrich®, St. Louis, Mo., USA) in 200 μl PBS i.p., or PBS control, at 1100 h on gd 16.5. Mice were immediately administered compound 2 (1 mg/kg in PBS) or vehicle control (PBS+0.1% BSA) within 5 mins of LPS injection on gd 16.5, then killed 4 h later. Brain tissues were recovered by severing the fetal head from 2 fetuses from each of […] per treatment group.
Expression of inflammatory markers. Messenger RNA (mRNA) was extracted by homogenizing tissues using ceramic beads (Mo Bio) in Trizol® (Ambion® RNA, Carlsbad Calif.). […] Primer pairs specific for published cDNA sequences were designed using Primer Express® software (Applied Biosystems®, Foster City, Calif.) to quantify Il1a, Il1b, Il6 and Tnfa mRNA. […] Data were normalized to β-actin mRNA expression and expressed as ΔΔCT using the formula mRNA level=[…]. […] Data were tested for normality using a Shapiro-Wilk test then analyzed by Kruskal-Wallis and Mann-Whitney U-test since data were not normally distributed. […]

Compound | levels of all cytokines tested (IL-1β, IL-6, IL-8, PGF2α) in neonatal lungs [1] | levels of gut IL-6 [2] | increased IL-1β and IL-6 levels in the brain [3] | increased IL-8 levels in the brain [3] | increased IL-1β and IL-8 in neonatal intestines [2] | expression of Il1a, Il1b and Il6 in fetal head relative to PBS control ([4]; LPS + compound 2) | expression of Il1a, Il1b and Il6 in fetal head relative to PBS control ([4]; compound 2 alone (no LPS)) | expression of Il1a, IL6, TNF and IL1B in fetal head, reduction relative to LPS alone ([4]; dams given LPS 0.5 μg i.p. gd 16.5 + compound 2 1 mg/kg, 4 h later)
Kineret: recombinant form of the human interleukin-1 receptor antagonist (IL-1Ra), purchased from Swedish Orphan Biovitrum AB | only effective at significantly decreasing lung IL-1β levels | not observed | ineffective at significantly reducing | although significant, was weaker than that obtained with compound 1 | – | – | – | –
CC(C)C[C@@H](NC(=O)[C@@H](CCC(=O)O)NC(=O)[C@H](NC(=O)[C@H](NC(=O)[C@@H](Cc1ccc(O)cc1)NC(=O)[C@H](N)CCCNC(=N)N)C(C)O)C(C)C)C(=O)N[C@H](C)C(N)=O (stereo partly drawn) [compound 1] (H-[dR][dY][dThr(3ξ)][dV][dE][dL][dA]-NH2) | significant reduction | clear trend toward decreased levels | alleviated this effect | alleviated this effect | alleviated this effect | – | – | –
CC(C)C[C@@H](NC(=O)[C@@H](CCC(=O)O)NC(=O)[C@H](NC(=O)[C@H](NC(=O)[C@@H](Cc1ccc(O)cc1)NC(=O)[C@H](N)CCCNC(=N)N)C(C)O)C(C)C)C(=O)N[C@H](C)C(=O)O (stereo partly drawn) [compound 2] (H-[dR][dY][dThr(3ξ)][dV][dE][dL][dA]-OH) | – | – | – | – | – | no change | did not significantly alter | 40-60%
